Results taken from patent US20230085307A1, “PYRIDAZINONE COMPOUND AND HERBICIDE” (NISSAN CHEMICAL CORPORATION, priority 2019, published 2023).

What was measured:
Chinese sprangletop = assay: Test Example 3: herbicidal effect by foliage application, Wagner pot (Table 18, symbol D); assay type: in vivo, chinese sprangletop (Leptochloa chinensis)
Method in brief: (§1)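 Plants were sown in alluvial soil held under 0.1–0.5 cm standing water and grown 14 days in a greenhouse at 25–30 °C. An emulsifiable formulation, water-diluted to the set dose, was then sprayed onto the foliage, and effects were scored three weeks later using previously defined criteria.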

Japanese bulrush = assay: Test Example 1: herbicidal activity, application before weed generation under submerged conditions (Table 16, symbol B); assay type: in vivo, Japanese bulrush (Schoenoplectus juncoides); details: amount of applied herbicide 320 g/ha
Method in brief: (§2)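 Emulsion formulation, water-diluted to set dose, was put onto the flooded surface (4 cm depth, alluvial soil) the same day weeds were sown and 2.5-leaf rice transplanted. After 3 weeks at 25-30 °C under glass, each species was rated 0 (≤5% kill) to 5 (≥90% kill).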

late watergrass = assay: Test Example 1: herbicidal activity, application before weed generation under submerged conditions (Table 16, symbol A); assay type: in vivo, late watergrass (Echinochloa oryzicola); details: amount of applied herbicide 320 g/ha
Method in brief: as §2

persian speedwell = assay: Test Example 5: herbicidal effect by foliage application, plastic box (Table 20, symbol R); assay type: in vivo, Persian speedwell (Veronica persica); details: 320 g/ha
Method in brief: (§3)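 Plants sown in sterilized diluvial soil and grown 14 days in a greenhouse at 25° C to 30° C, then sprayed on the foliage with the compound's emulsion diluted in water to a predetermined herbicide amount. Injury to weeds and crops scored three weeks after application on a visual rating scale.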

windgrass = assay: Test Example 5: herbicidal effect by foliage application, plastic box (Table 20, symbol L); assay type: in vivo, windgrass (Apera spica-venti); details: 320 g/ha
Method in brief: as §3

chickweed = assay: Test Example 5: herbicidal effect by foliage application, plastic box (Table 20, symbol P); assay type: in vivo, common chickweed (Stellaria media); details: 320 g/ha
Method in brief: as §3

blackgrass = assay: Test Example 5: herbicidal effect by foliage application, plastic box (Table 20, symbol J); assay type: in vivo, blackgrass (Alopecurus myosuroides); details: 320 g/ha
Method in brief: as §3

wild oat = assay: Test Example 5: herbicidal effect by foliage application, plastic box (Table 20, symbol I); assay type: in vivo, wild oat (Avena fatua); details: 320 g/ha
Method in brief: as §3

redroot pigweed = assay: Test Example 5: herbicidal effect by foliage application, plastic box (Table 20, symbol N); assay type: in vivo, redroot pigweed (Amaranthus retroflexus); details: 320 g/ha
Method in brief: as §3

southern crabgrass = assay: Test Example 5: herbicidal effect by foliage application, plastic box (Table 20, symbol F); assay type: in vivo, southern crabgrass (Digitaria ciliaris); details: 320 g/ha
Method in brief: as §3

Italian ryegrass = assay: Test Example 5: herbicidal effect by foliage application, plastic box (Table 20, symbol K); assay type: in vivo, Italian ryegrass (Lolium multiflorum); details: 320 g/ha
Method in brief: as §3

barnyard grass [1] = assay: Test Example 5: herbicidal effect by foliage application, plastic box (Table 20, symbol H); assay type: in vivo, barnyard grass (Echinochloa crus-galli); details: 320 g/ha
Method in brief: as §3

green foxtail = assay: Test Example 5: herbicidal effect by foliage application, plastic box (Table 20, symbol G); assay type: in vivo, green foxtail (Setaria viridis); details: 320 g/ha
Method in brief: as §3

velvetleaf = assay: Test Example 5: herbicidal effect by foliage application, plastic box (Table 20, symbol M); assay type: in vivo, velvetleaf (Abutilon theophrasti); details: 320 g/ha
Method in brief: as §3

rice flat sedge = assay: Test Example 3: herbicidal effect by foliage application, Wagner pot (Table 18, symbol E); assay type: in vivo, rice flat sedge (Cyperus iria)
Method in brief: as §1

lambsquarters = assay: Test Example 5: herbicidal effect by foliage application, plastic box (Table 20, symbol O); assay type: in vivo, lambsquarters (Chenopodium album); details: 320 g/ha
Method in brief: as §3

barnyard grass [2] = assay: Test Example 3: herbicidal effect by foliage application, Wagner pot (Table 18, symbol H); assay type: in vivo, barnyard grass (Echinochloa crus-galli)
Method in brief: as §1

oval-leafed pondweed = assay: Test Example 1: herbicidal activity, application before weed generation under submerged conditions (Table 16, symbol C); assay type: in vivo, oval-leafed pondweed (Monochoria vaginalis); details: amount of applied herbicide 320 g/ha
Method in brief: as §2

[3] = amount of applied herbicide 320 g/ha
[4] = foliage application, three weeks after application
[5] = foliage application after 14-day growth, evaluated three weeks after application

SMILES: COc1ccccc1-c1sc2cc(F)ccc2c1-c1c(OC(=O)N2CCOCC2)c(C)nn(C)c1=O [3-025]
- herbicidal effect on D: Chinese sprangletop (Chinese sprangletop; [3]): 0 (Herbicidal rate of 5% or less (almost no effect))
- Herbicidal effect, B: Japanese bulrush (Japanese bulrush): 0 (Herbicidal rate of 5% or less (almost no effect))
- Herbicidal effect, A: late watergrass (late watergrass): 0 (Herbicidal rate of 5% or less (almost no effect))
- R: persian speedwell, herbicidal effect grade (persian speedwell; [4]): 0 (Herbicidal rate of 5% or less (almost no effect))
- L: windgrass, herbicidal effect grade (windgrass; [4]): 0 (Herbicidal rate of 5% or less (almost no effect))
- P: chickweed, herbicidal effect grade (chickweed; [4]): 3 (Herbicidal rate of 40% or more and less than 70%)
- J: blackgrass, herbicidal effect grade (blackgrass; [4]): 0 (Herbicidal rate of 5% or less (almost no effect))
- I: wild oat, herbicidal effect grade (wild oat; [4]): 0 (Herbicidal rate of 5% or less (almost no effect))
- N: redroot pigweed, herbicidal effect grade (redroot pigweed; [4]): 1 (Herbicidal rate of 5% or more and less than 20%)
- F: southern crabgrass, herbicidal effect grade (southern crabgrass; [4]): 0 (Herbicidal rate of 5% or less (almost no effect))
- K: Italian ryegrass, herbicidal effect grade (Italian ryegrass; [4]): 0 (Herbicidal rate of 5% or less (almost no effect))
- H: barnyard grass, herbicidal effect grade (barnyard grass [1]; [4]): 0 (Herbicidal rate of 5% or less (almost no effect))
- G: green foxtail, herbicidal effect grade (green foxtail; [4]): 0 (Herbicidal rate of 5% or less (almost no effect))
- M: velvetleaf, herbicidal effect grade (velvetleaf; [4]): 0 (Herbicidal rate of 5% or less (almost no effect))
- herbicidal effect on E: rice flat sedge (rice flat sedge; [3]): 2 (Herbicidal rate of 20% or more and less than 40%)
- O: lambsquarters, herbicidal effect grade (lambsquarters; [4]): 0 (Herbicidal rate of 5% or less (almost no effect))
- herbicidal effect on H: barnyard grass (barnyard grass [2]; [3]): 3 (Herbicidal rate of 40% or more and less than 70%)
- Herbicidal effect, C: oval-leafed pondweed (oval-leafed pondweed): 3 (Herbicidal rate of 40% or more and less than 70%)

SMILES: COc1ccc2c(-c3c(OCC#N)c(C)nn(C)c3=O)c(-c3ccccc3OC)sc2c1 [3-153]
- herbicidal effect on Chinese sprangletop (D) (Chinese sprangletop; 320 g/ha): 2 (Herbicidal rate of 20% or more and less than 40%)
- Herbicidal effect, B: Japanese bulrush (Japanese bulrush): 3 (Herbicidal rate of 40% or more and less than 70%)
- Herbicidal effect, A: late watergrass (late watergrass): 3 (Herbicidal rate of 40% or more and less than 70%)
- herbicidal effect on R: persian speedwell (evaluation grade 0-5) (persian speedwell; [5]): 4 (Herbicidal rate of 70% or more and less than 90%)
- herbicidal effect on L: windgrass (evaluation grade 0-5) (windgrass; [5]): 4 (Herbicidal rate of 70% or more and less than 90%)
- herbicidal effect on P: chickweed (evaluation grade 0-5) (chickweed; [5]): 5 (Herbicidal rate of 90% or more (almost completely withered))
- herbicidal effect on J: blackgrass (evaluation grade 0-5) (blackgrass; [5]): 3 (Herbicidal rate of 40% or more and less than 70%)
- herbicidal effect on I: wild oat (evaluation grade 0-5) (wild oat; [5]): 0 (Herbicidal rate of 5% or less (almost no effect))
- herbicidal effect on N: redroot pigweed (evaluation grade 0-5) (redroot pigweed; [5]): 4 (Herbicidal rate of 70% or more and less than 90%)
- herbicidal effect on F: southern crabgrass (evaluation grade 0-5) (southern crabgrass; [5]): 3 (Herbicidal rate of 40% or more and less than 70%)
- herbicidal effect on K: Italian ryegrass (evaluation grade 0-5) (Italian ryegrass; [5]): 0 (Herbicidal rate of 5% or less (almost no effect))
- herbicidal effect on H: barnyard grass (evaluation grade 0-5) (barnyard grass [1]; [5]): 5 (Herbicidal rate of 90% or more (almost completely withered))
- herbicidal effect on G: green foxtail (evaluation grade 0-5) (green foxtail; [5]): 5 (Herbicidal rate of 90% or more (almost completely withered))
- herbicidal effect on M: velvetleaf (evaluation grade 0-5) (velvetleaf; [5]): 5 (Herbicidal rate of 90% or more (almost completely withered))
- herbicidal effect on rice flat sedge (E) (rice flat sedge; 320 g/ha): 0 (Herbicidal rate of 5% or less (almost no effect))
- herbicidal effect on O: lambsquarters (evaluation grade 0-5) (lambsquarters; [5]): 4 (Herbicidal rate of 70% or more and less than 90%)
- herbicidal effect on barnyard grass (H) (barnyard grass [2]; 320 g/ha): 5 (Herbicidal rate of 90% or more (almost completely withered))
- Herbicidal effect, C: oval-leafed pondweed (oval-leafed pondweed): 3 (Herbicidal rate of 40% or more and less than 70%)
